Results as given in the supplement of paper PMC4862054.

Legend:
Conditions in all cases: incubation time: 72 h
BT-474 [1] = experiment: normalised response (% of control), CellTox Green; higher = less cell death (100 = DMSO, 0 = benzethonium chloride kill control)
How it was run: (§1)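 CellTox Green fluorescence (485/520 nm) and, after 10 min at room temperature, CellTiter-Glo luminescence were read from breast cancer cell lines incubated 72 h in 384-well plates. Cells were seeded as 20 µl suspension onto compound at 5 concentrations in 10-fold steps over a 10,000-fold range chosen per compound. Each plate was normalised to 0.1 % DMSO (100) and a positive kill control (0). Values are normalised signals, one per concentration.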

BT-549 [2] = experiment: as above
How it was run: as §1

CAL-120 [3] = experiment: as above
How it was run: as §1

CAL-148 [4] = experiment: as above
How it was run: as §1

CAL-51 [5] = experiment: as above
How it was run: as §1

CAL-85-1 [6] = experiment: as above
How it was run: as §1

DU-4475 [7] = experiment: as above
How it was run: as §1

HCC1143 [8] = experiment: as above
How it was run: as §1

HCC1599 [9] = experiment: as above
How it was run: as §1

HCC1937 [10] = experiment: as above
How it was run: as §1

HDQ-P1 [11] = experiment: as above
How it was run: as §1

Hs578T [12] = experiment: as above
How it was run: as §1

MCF-10A [13] = experiment: as above
How it was run: as §1

MDA-MB-231 [14] = experiment: as above
How it was run: as §1

MDA-MB-436 [15] = experiment: as above
How it was run: as §1

MDA-MB-453 [16] = experiment: as above
How it was run: as §1

MDA-MB-468 [17] = experiment: as above
How it was run: as §1

MFM-223 [18] = experiment: as above
How it was run: as §1

BT-474 [19] = experiment: normalised response (% of control), CellTiter-Glo; higher = more viable cells (100 = DMSO, 0 = benzethonium chloride kill control)
Procedure: (§2)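 DSRT, 72 h incubation, CellTox Green / CellTiter-Glo readout. Signal is normalised to DMSO and benzethonium chloride controls. Value is the normalised response at the highest dose.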

BT-549 [20] = experiment: as above
Procedure: as §2

CAL-120 [21] = experiment: as above
Procedure: as §2

CAL-148 [22] = experiment: as above
Procedure: as §2

CAL-51 [23] = experiment: as above
Procedure: as §2

CAL-85-1 [24] = experiment: as above
Procedure: as §2

DU-4475 [25] = experiment: as above
Procedure: as §2

HCC1143 [26] = experiment: as above
Procedure: as §2

HCC1599 [27] = experiment: as above
Procedure: as §2

HCC1937 [28] = experiment: as above
Procedure: as §2

HDQ-P1 [29] = experiment: as above
Procedure: as §2

Hs578T [30] = experiment: as above
Procedure: as §2

MCF-10A [31] = experiment: as above
Procedure: as §2

MDA-MB-231 [32] = experiment: as above
Procedure: as §2

MDA-MB-436 [33] = experiment: as above
Procedure: as §2

MDA-MB-453 [34] = experiment: as above
Procedure: as §2

MDA-MB-468 [35] = experiment: as above
Procedure: as §2

MFM-223 [36] = experiment: as above
Procedure: as §2

SK-BR-3 = experiment: as above
Procedure: as §2

Structure (SMILES) | normalised response (BT-474 [1]) [%] | normalised response (BT-549 [2]) [%] | normalised response (CAL-120 [3]) [%] | normalised response (CAL-148 [4]) [%] | normalised response (CAL-51 [5]) [%] | normalised response (CAL-85-1 [6]) [%] | normalised response (DU-4475 [7]) [%] | normalised response (HCC1143 [8]) [%] | normalised response (HCC1599 [9]) [%] | normalised response (HCC1937 [10]) [%] | normalised response (HDQ-P1 [11]) [%] | normalised response (Hs578T [12]) [%] | normalised response (MCF-10A [13]) [%] | normalised response (MDA-MB-231 [14]) [%] | normalised response (MDA-MB-436 [15]) [%] | normalised response (MDA-MB-453 [16]) [%] | normalised response (MDA-MB-468 [17]) [%] | normalised response (MFM-223 [18]) [%] | normalised response (BT-474 [19]) [%] | normalised response (BT-549 [20]) [%] | normalised response (CAL-120 [21]) [%] | normalised response (CAL-148 [22]) [%] | normalised response (CAL-51 [23]) [%] | normalised response (CAL-85-1 [24]) [%] | normalised response (DU-4475 [25]) [%] | normalised response (HCC1143 [26]) [%] | normalised response (HCC1599 [27]) [%] | normalised response (HCC1937 [28]) [%] | normalised response (HDQ-P1 [29]) [%] | normalised response (Hs578T [30]) [%] | normalised response (MCF-10A [31]) [%] | normalised response (MDA-MB-231 [32]) [%] | normalised response (MDA-MB-436 [33]) [%] | normalised response (MDA-MB-453 [34]) [%] | normalised response (MDA-MB-468 [35]) [%] | normalised response (MFM-223 [36]) [%] | normalised response (SK-BR-3) [%]
CC(C)n1cnc2c(NCCc3ccc(O)cc3)nc(-c3csc4ccccc34)nc21 [StemRegenin 1] (10000 nM) | 85.5 | 94.6 | 103 | 104 | 122 | 78.5 | 98.1 | 70.8 | 102 | 91.1 | 84.8 | -20 | 118 | 100 | 103 | 87.5 | 130 | 28.5 | 71.4 | 76.4 | 89.2 | 102 | 107 | 78.2 | 89.3 | 93.6 | 61.6 | 58.9 | 76.9 | 76.3 | 97.7 | 85.3 | 74 | 76.1 | 47.5 | 59.2 | 68.3
CCn1c(C(=O)N(C2CC2)C2CC2)cc2c3c(ncn3C)c(Nc3cc(C)n(C)n3)nc21 (10000 nM) | 103 |  | 103 | 93 | 99.5 | 102 | 98.5 |  | 94 |  | 105 | 89.6 | 109 | 113 | 88.1 | 97.7 | 80.7 | 94.3 | 83.3 | 102 | 102 | 103 | 106 | 99.5 | 97.9 | 93.2 | 123 | 92.8 | 101 | 96 | 86.6 | 82.2 | 93.6 | 97 | 94.4 | 83.1 | 93.2
C=CCN(/C=C1/C(=O)O[C@H](COC)[C@@]2(C)C1=C(O)C(=O)C1=C2[C@H](OC(C)=O)C[C@]2(C)C(=O)CC[C@@H]12)CC=C [Sonolisib] (10000 nM) | 99.8 | 104 | 97.4 |  | 90.6 | 61.7 | 107 | 117 | 113 | 81.7 | 108 | 111 | 108 | 106 | 98.2 | 101 |  | 103 | 87.1 | 82.2 | 102 | 124 | 82.1 | 103 | 96.5 | 91.8 | 102 | 90.4 | 72.1 | 95.7 | 88.4 | 87.3 | 101 | 84.8 | 86 | 106 | 93.9
CN(Cc1cnc2nc(N)nc(N)c2n1)c1ccc(C(=O)N[C@@H](CCC(=O)O)C(=O)O)cc1 [Methotrexate] (50000 nM) | 93.8 | 103 | 102 | 105 | 114 | 64.1 | 99 |  | 101 | 106 | 112 | -70.6 | 103 | 92.3 | 42.9 | 65 | 77.6 | 103 | 23.6 | 92.2 | 21.7 | 107 | 68.2 | 49.6 | 92.3 | 84.4 | 52.4 | 31.5 | 53.7 | 19.5 | 105 | 29.1 | 77.1 | 96 | 100 | 101 | 72.5
CCN(CC)CCCC(C)Nc1ccnc2cc(Cl)ccc12 (centres undefined) [Chloroquine] (100000 nM) | -2.97 | 30.4 | 8.39 | 24.9 | 28.5 | -51.4 | 48.9 | 67.2 | 57 | 18.7 | 23 | -118 | -62.8 | -46.1 | 42.2 | 1.49 | -27.6 | 0.04 | 2.13 | 0.71 | 7.89 | 0.47 | 1.42 | 0.53 | 0.38 | 22.8 | 0.3 | 3.72 | 0.97 | 0.3 | 1.88 | 0.24 | 1.76 | 0.26 | 1.06 | 0.63 | 0.25
CC1(COc2ccc3c(c2)ncn3-c2ccc3cccc(N4CCC(N)CC4)c3n2)COC1 [Crenolanib] (10000 nM) | 17.5 | 28.9 | 74.8 | -15.7 | 30.6 | -25.9 | 63.6 | 55.7 | 81.5 | 87.1 | 39.2 | 103 | -4.14 | -59 | 36.1 | 78.5 | 131 | 93.4 | 3.8 | 20.6 | 52.4 | 8.15 | 7.22 | 1.52 | 25 | 75.8 | 60.6 | 52.4 | 13.9 | 27.5 | 10.4 | 0.75 | 7.1 | 15.6 | 12.9 | 61.4 | 2.13
O=[N+]([O-])c1ccc2c(c1)S(=O)(=O)C=C2 [Stattic] (50000 nM) | 8.89 | -34.2 | 27.8 | 25.6 | 34.1 | -51.7 | 82.3 | -42.8 | 65 | -18.2 | 27.2 | -12.9 | -24.7 | -17.4 | -15.2 | 17.2 | -81.1 | 30.1 | 0.34 | -0.12 | -0.12 | 0.45 | 0.17 | -0.24 | 0.04 | 0.27 | 0.17 | 0.16 | 0.11 | 0.3 | 0.13 | -0.2 | -0.02 | 0.25 | 0.18 | 0.11 | 0.32
CN[C@@H](C)C(=O)N[C@H]1CN(C(=O)CC(C)C)CC[C@H]2CC[C@@H](C(=O)NC(c3ccccc3)c3ccccc3)N2C1=O [AT-406] (10000 nM) | 89.4 | 83.8 | 41.2 | 66.9 | 83 | 0.8 | 95.4 | 108 | 97.5 | 84.8 |  | 92.7 | 112 | -35.9 | 85.5 | 93.2 | 57.3 | 103 | 16.4 | 64.9 | 61.1 | 91.2 | 90.8 | 41.9 | 97.9 | 85.5 | 97.5 | 88 | 84.5 | 94.1 | 106 | 14.2 | 93.2 | 58.1 | 65.1 | 102 | 89.6
O=C(O)CNC(=O)c1c(O)c2ccccc2n(Cc2ccccc2)c1=O [IOX-2] (50000 nM) | 102 | 73.6 | 101 | 101 | 84.3 | 105 | 97.8 | 104 | 102 | 91.5 |  | 113 | 107 | 100 | 67 |  | 133 | 103 | 85.9 | 86.4 | 95.3 | 97.8 | 71.1 | 93.9 | 98.3 | 92.6 | 97.3 | 98.2 | 91.1 | 103 | 102 | 85.1 | 62.9 | 103 | 92.2 | 98.2 | 94
